# Literature values in patent publication US20070213409A1, “USE OF PREPARATIONS FOR SKIN ENZYME PROTECTION” (BEIERSDORF AG, priority 2005, published 2007).
# Where a name gives a salt, the structure may show the parent alone.
# How the values were obtained:
# [1] = tested on: stratum corneum chymotryptic enzyme (SCCE); details: competitive inhibition; associated with reduced desquamation
# [2] = tested on: stratum corneum tryptic enzyme (SCTE); details: competitive inhibition; associated with reduced desquamation
# [3] = tested on: desquamation (SCCE and SCTE serine proteases)
compound,measurement,setting,value
CC(C)CCC[C@@H](C)[C@H]1CC[C@H]2[C@@H]3CC=C4C[C@@H](OS(=O)(=O)O)CC[C@]4(C)[C@H]3CC[C@]12C [cholesterol-3 sulfate],effect on activity of SCCE,[1],reduces
same,effect on activity of SCTE,[2],reduces
CC(=O)N[C@@H](CC(C)C)C(=O)N[C@@H](CC(C)C)C(=O)N[C@H](C=O)CCCNC(=N)N [leupeptin],skin flakes in vivo after topical application,[3],more skin flakes
aprotinin,skin flakes in vivo after topical application,[3],more skin flakes
